According to patent US12594263B2, “CBL inhibitors and compositions for expansion of immune cells” (Nurix Therapeutics, Inc., priority 2019, dated 2026):

Test system: E.G7-OVA tumors
Experiment: Oral Cbl inhibitor treatment of mice given expanded OT-1 cells
Type: in vivo, mouse
Experimental: Tumor volume was measured roughly every five days after cell transfer.
OT-1 cells were assessed in mouse blood 5 days and 20 days after transfer.

[1] = 5 days and 20 days after transfer (FIGS. 20A, 20B)

C[C@H]1CCCN(Cc2cc3c(c(C(F)(F)F)c2)CN(c2cccc([C@]4(c5nncn5C)C[C@@H](C)C4)c2)C3=O)C1 [Compound 116]
Frequency of OT-1 cells in mouse blood [1]: increased frequency of OT-1 cells | Persistence of OT-1 cells in mouse blood [1]: longer persistence of OT-1 cells | Anti-tumor efficacy of OT-1 cells expanded with compound 103 plus IL-2 (tumor volume) (oral administration (FIG. 18)): enhanced the anti-tumor efficacy | Survival of mice treated with OT-1 cells expanded with compound 103 plus IL-2 (oral administration (FIG. 19)): enhanced survival
